Assay: Mouse single administration (acute toxicity)
Format: in vivo
Details: single oral administration
Description: Toxicity of the compound represented by formula (1) which is the effective ingredient of the pharmaceutical composition of the present invention was examined in terms of toxicity by mouse single administration (acute toxicity).

For `CC(C)n1c(=O)c(C(=O)N[C@H]2C[C@H]3CC[C@@H](C2)N3C)cc2ccccc21` [Compound 1, endo-N-(8-methyl-8-azabicyclo[3.2.1]oct-3-yl)-1-isopropyl-2(1H)-quinolone-3-carboxamide], which minimum lethal dose is on record?
Its minimum lethal dose is “more than 125 mg/kg”.

— US5571820A, “Heterocyclic compound” (Taisho Pharmaceutical Co., Ltd., priority 1992, dated 1996)
